Laboratory results reported in ChEMBL document CHEMBL1137415, “Structure-activity relationship of 6-methylidene penems bearing 6,5 bicyclic heterocycles as broad-spectrum beta-lactamase inhibitors: evidence for 1,4-thiazepine intermediates with C7 R stereochemistry by computational methods” (J Med Chem, 2006).
≈ marks a conversion by molar mass, not a printed value.

Tests used:
Beta-lactamase TEM = Beta-lactamase TEM (Escherichia coli, UniProt P62593); assay: Inhibition of Escherichia coli TEM1
[1] = target: Beta-lactamase TEM (Escherichia coli) (UniProt P62593); assay: Antibacterial activity against Escherichia coli expressing TEM1; assay type: functional
Klebsiella aerogenes [2] = assay: Antibacterial activity against Enterobacter aerogenes expressing AmpC in iv dosed murine acute lethal infection model in presence of piperacillin; assay type: functional
Beta-lactamase = Beta-lactamase (Enterobacter cloacae, UniProt P05364)
Description: Inhibition of Enterobacter cloacae AmpC

Enterobacter cloacae = assay: Antibacterial activity against Enterobacter cloacae expressing P99; assay type: functional
Pseudomonas aeruginosa = assay: Antibacterial activity against Pseudomonas aeruginosa expressing AmpC; assay type: functional
[3] = target: T1, Imipenem-hydrolyzing beta-lactamase (Enterobacter cloacae, UniProt P52663); assay: Inhibition of Enterobacter cloacae Imi1
T1 sequence (P52663 whole entry): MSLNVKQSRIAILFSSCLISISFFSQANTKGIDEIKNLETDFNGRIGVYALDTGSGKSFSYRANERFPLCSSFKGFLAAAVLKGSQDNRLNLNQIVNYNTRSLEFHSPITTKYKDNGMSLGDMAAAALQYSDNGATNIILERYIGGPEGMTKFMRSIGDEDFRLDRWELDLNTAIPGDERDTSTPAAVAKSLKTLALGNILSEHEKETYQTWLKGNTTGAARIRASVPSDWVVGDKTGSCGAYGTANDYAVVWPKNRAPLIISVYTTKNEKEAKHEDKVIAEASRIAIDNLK

Escherichia coli [4] = assay: Antibacterial activity against Escherichia coli expressing TEM1 in iv dosed murine acute lethal infection model in presence of piperacillin; assay type: functional
Serratia marcescens = assay: Antibacterial activity against Serratia marcescens expressing AmpC and Smel; assay type: functional
Escherichia coli [5] = assay: Antibacterial activity against Escherichia coli expressing TEM1 in iv dosed murine acute lethal infection model; assay type: functional
Klebsiella aerogenes [6] = assay: Antibacterial activity against Enterobacter aerogenes expressing AmpC in iv dosed murine acute lethal infection model; assay type: functional
[7] = target: Metallo-beta-lactamase type 2 (Bacteroides fragilis, UniProt P25910); assay: Inhibition of Bacteroides fragilis CcrA
[8] = Inhibition of GC1
[9] = Inhibition of SHV1

Beta-lactamase TEM (Escherichia coli), sequence (P62593 whole entry): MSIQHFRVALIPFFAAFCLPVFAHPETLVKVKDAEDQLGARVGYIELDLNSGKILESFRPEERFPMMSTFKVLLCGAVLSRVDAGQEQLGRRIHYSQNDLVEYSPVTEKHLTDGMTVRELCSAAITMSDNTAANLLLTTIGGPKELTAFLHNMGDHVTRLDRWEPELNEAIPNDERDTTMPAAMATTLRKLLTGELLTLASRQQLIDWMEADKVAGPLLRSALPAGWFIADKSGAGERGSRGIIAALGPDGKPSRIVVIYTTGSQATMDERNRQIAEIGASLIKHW
Beta-lactamase TEM, sequence (P62593 whole entry): as above
Metallo-beta-lactamase type 2, sequence (P25910 whole entry): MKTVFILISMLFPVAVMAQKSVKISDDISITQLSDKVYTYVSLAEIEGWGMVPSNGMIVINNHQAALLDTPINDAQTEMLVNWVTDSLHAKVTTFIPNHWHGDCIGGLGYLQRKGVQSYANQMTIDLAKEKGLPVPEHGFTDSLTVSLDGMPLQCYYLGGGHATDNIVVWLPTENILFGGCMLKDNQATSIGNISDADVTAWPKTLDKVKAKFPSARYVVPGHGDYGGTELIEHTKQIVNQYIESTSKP
Beta-lactamase, sequence (P05364 whole entry): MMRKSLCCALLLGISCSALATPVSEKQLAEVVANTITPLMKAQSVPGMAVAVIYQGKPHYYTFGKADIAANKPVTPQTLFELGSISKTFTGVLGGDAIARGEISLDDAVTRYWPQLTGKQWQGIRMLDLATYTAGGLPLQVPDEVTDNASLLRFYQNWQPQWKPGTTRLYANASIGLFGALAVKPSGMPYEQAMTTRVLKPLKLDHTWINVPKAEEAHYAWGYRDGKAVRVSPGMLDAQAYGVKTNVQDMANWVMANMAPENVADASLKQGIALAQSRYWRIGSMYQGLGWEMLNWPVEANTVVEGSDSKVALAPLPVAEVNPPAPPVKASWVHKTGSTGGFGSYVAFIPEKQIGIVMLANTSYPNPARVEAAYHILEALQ

| SMILES | IC50 (Beta-lactamase TEM) | MIC [1] | ED50 (Klebsiella aerogenes [2]) | IC50 (Beta-lactamase) | MIC (Enterobacter cloacae) | MIC (Pseudomonas aeruginosa) | IC50 [3] | ED50 (Escherichia coli [4]) | MIC (Serratia marcescens) | ED50 (Escherichia coli [5]) | ED50 (Klebsiella aerogenes [6]) | IC50 [7] | IC50 [8] | IC50 [9] |
| --- | --- | --- | --- | --- | --- | --- | --- | --- | --- | --- | --- | --- | --- | --- |
| O=C([O-])C1=CS[C@@H]2/C(=C\c3cc4n(n3)CCCC4)C(=O)N12.[Na+] | 2 nM | 2 µg/mL | 86 mg/kg | 3 nM | 4 µg/mL | 4 µg/mL | 90 nM | 28 mg/kg | 1 µg/mL | – | – | – | – | – |
| CCN1CCN(C(=O)NC(C(=O)N[C@@H]2C(=O)N3C2SC(C)(C)[C@@H]3C(=O)O)c2ccccc2)C(=O)C1=O (single isomer, unassigned) [PIPERACILLIN] | – | – | – | – | – | – | – | – | – | 165 mg/kg | 421 mg/kg | – | – | – |
| O=C([O-])C1=CS[C@@H]2/C(=C\c3cn4c(n3)CSCC4)C(=O)N12.[Na+] | 3 nM | 8 µg/mL | – | 2 nM | 8 µg/mL | 8 µg/mL | 2300 nM | – | 8 µg/mL | – | – | 8 nM | – | – |
| O=C([O-])C1=CS[C@@H]2/C(=C/c3cn4c(n3)CSCC4)C(=O)N12.[Na+] | 730 nM | 64 µg/mL | – | 420 nM | 32 µg/mL | 64 µg/mL | > 10000 nM | – | 4 µg/mL | – | – | 110 nM | – | – |
| C[C@]1(Cn2ccnn2)[C@H](C(=O)O)N2C(=O)C[C@H]2S1(=O)=O [TAZOBACTAM] | – | 2 µg/mL (≈ 6.66 µM) | – | – | 64 µg/mL (≈ 213 µM) | 64 µg/mL (≈ 213 µM) | – | – | 1 µg/mL (≈ 3.33 µM) | – | – | – | – | – |
| O=C([O-])C1=CS[C@@H]2/C(=C/c3cn4c(n3)COCC4)C(=O)N12.[Na+] | 0.4 nM | 2 µg/mL | 96 mg/kg | 5 nM | 8 µg/mL | 1 µg/mL | 8 nM | 23 mg/kg | 1 µg/mL | – | – | 66 nM | 6.2 nM | 9 nM |
| CN1CCn2cc(/C=C3/C(=O)N4C(C(=O)[O-])=CS[C@H]34)nc2C1.[Na+] | 4 nM | 16 µg/mL | – | 6 nM | 1 µg/mL | 4 µg/mL | 22 nM | – | 1 µg/mL | – | – | – | – | – |
| COc1ccc(CN2CCc3sc(/C=C4/C(=O)N5C(C(=O)[O-])=CS[C@H]45)cc3C2)cc1.[Na+] | 2 nM | 8 µg/mL | – | 15 nM | 32 µg/mL | 32 µg/mL | 27 nM | – | 1 µg/mL | – | – | 78 nM | – | – |
| O=C([O-])C1=CS[C@@H]2/C(=C\c3cc4n(n3)CCSC4)C(=O)N12.[Na+] | – | 4 µg/mL | 123 mg/kg | 1 nM | 8 µg/mL | 2 µg/mL | 18 nM | 31 mg/kg | 0.5 µg/mL | – | – | – | – | – |
| O=C([O-])C1=CS[C@@H]2/C(=C\c3cc4c(s3)CCN(Cc3cccnc3)C4)C(=O)N12.[Na+] | 10 nM | 32 µg/mL | – | – | 64 µg/mL | 64 µg/mL | 40 nM | – | 1 µg/mL | – | – | – | – | – |
| O=C([O-])C1=CS[C@@H]2/C(=C\c3cc4n(n3)CCNC4)C(=O)N12.[Na+] | 1 nM | 4 µg/mL | – | 3 nM | 16 µg/mL | 0.5 µg/mL | 123 nM | 30 mg/kg | 1 µg/mL | – | – | – | – | – |
| O=C([O-])C1=CS[C@@H]2/C(=C\c3cc4n(n3)CCOC4)C(=O)N12.[Na+] | 4 nM | 4 µg/mL | – | 6 nM | 8 µg/mL | 2 µg/mL | 20 nM | 19 mg/kg | 1 µg/mL | – | – | – | – | – |
| O=C([O-])C1=CS[C@@H]2/C(=C\c3cc4n(n3)CCS(=O)(=O)C4)C(=O)N12.[Na+] | 1 nM | 4 µg/mL | – | 2 nM | 16 µg/mL | 2 µg/mL | 56 nM | 64 mg/kg | 1 µg/mL | – | – | 43 nM | – | – |
| O=C([O-])C1=CS[C@@H]2/C(=C/c3cn4c(n3)CNCC4)C(=O)N12.[Na+] | 5 nM | 2 µg/mL | – | 6 nM | 2 µg/mL | 16 µg/mL | 28 nM | 27 mg/kg | 1 µg/mL | – | – | 320 nM | – | – |
| O=C([O-])C1=CS[C@@H]2/C(=C\c3cc4n(n3)CCCO4)C(=O)N12.[Na+] | 6 nM | 4 µg/mL | – | 5 nM | 4 µg/mL | 1 µg/mL | 413 nM | 90 mg/kg | 1 µg/mL | – | – | 140 nM | – | – |
